Measurements as given in patent US20220088115A1, “PHARMACEUTICAL COMPOSITION, COMPRISING INHIBITORY PEPTIDE AGAINST FAS SIGNALING, FOR PREVENTION OR TREATMENT OF OBESITY, FATTY LIVER, OR STEATOHEPATITIS” (SIGNET BIOTECH INC., priority 2018, published 2022).

How the values were obtained:
obesity model mice [1] = assay: Glucose tolerance test (GTT) and insulin tolerance test (ITT), obesity model mice, intravenous FBP-8; type: in vivo, C57BL/6 mice
Procedure: (§1) All animal experiments performed for the present invention were approved by the Institutional Animal Care and Use Committee of Hanyang University. […] Thereafter, depending on the experimental group, 60 μg/one time of FBP8 were administered by intravenous injection twice a week for a total of 5 weeks (FIG. 13), or FBP7 was administered by subcutaneous injection twice a day.
For a glucose intolerance analysis, a dose of 2 g/kg of glucose was injected by intraperitoneal injection into each experimental group maintained in a fasting state for 12 hours, and blood glucose levels were measured after 30, 60 and 120 minutes by Accu-check (Roche, USA).
Insulin resistance was analyzed by measuring blood glucose levels 30 minutes, 60 minutes and 120 minutes after a dose of 0.75 U/kg of insulin was injected by intraperitoneal injection into each experimental group maintained in a fasting state for 4 hours.

Fas = target: T1, Fas (Mus musculus, UniProt P25446); assay: Binding of fluorescently labeled peptide to Fas in liver and white adipose tissue sections of HFD mice; conditions: sections from high fat diet (HFD) group
T1 construct: from tissue; host or cells: liver and white adipose tissue sections of high-fat-diet C57BL/6 mice
T1 sequence (P25446 22-327): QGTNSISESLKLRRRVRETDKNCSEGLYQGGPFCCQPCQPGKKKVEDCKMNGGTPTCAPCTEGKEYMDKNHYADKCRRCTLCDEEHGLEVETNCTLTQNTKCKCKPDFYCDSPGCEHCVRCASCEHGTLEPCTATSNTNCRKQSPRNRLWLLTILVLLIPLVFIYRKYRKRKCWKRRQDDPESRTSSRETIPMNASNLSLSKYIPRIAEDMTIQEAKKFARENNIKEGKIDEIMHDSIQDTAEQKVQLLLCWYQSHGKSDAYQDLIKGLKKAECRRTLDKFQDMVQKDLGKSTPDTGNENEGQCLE
Procedure: After the animal experiment was completed, mice were sacrificed to isolate liver tissues and white adipose tissues and prepare tissue sections. The prepared liver tissue and white adipose tissue sections were treated with an antigen retrieval buffer at 95° C. for 25 minutes and then cooled at room temperature. Thereafter, the tissue sections were treated with Tris Based Saline+Tween20 (TBST) containing 1% bovine serum albumin (BSA), 10% goat serum and 0.05% Tween 20 to undergo a blocking process, and were reacted with a Fas receptor-specific primary antibody at 4° C. for 18 hours. Thereafter, tissue sections were washed with TBST and reacted with a FITC-bound secondary antibody at room temperature for 2 hours.
In addition, in order to examine the tissue-binding ability of the peptide, the peptide to which Alexa 488 was bound was reacted with the primary antibody at 4° C. for 18 hours. The nuclei were stained with Hoechst 33342 (GE Healthcare), washed with TBST, and then confirmed.
The fluorescence signal of each tissue section was analyzed under a TCS-SP5 confocal microscope (Leica, Germany).

obesity model mice [2] = assay: Blood fatty acid, insulin, triglyceride, ALT and liver triglyceride, obesity model mice, intravenous FBP-8; type: in vivo, C57BL/6 mice
Procedure: as §1
(§2) The cytokine levels of serum and tissues were analyzed with an ELISA kit (eBioscience, USA), and the triglyceride levels of liver tissues were confirmed with a triglyceride assay kit (Cayman, USA).

obesity model mice [3] = assay: Liver morphology, weight and histological analysis, obesity model mice, intravenous FBP-8; type: in vivo, C57BL/6 mice
Procedure: as §1
Liver tissue and white adipose tissue sections were stained with hematoxylin & eosin and then histologically analyzed under an optical microscope.

obesity model mice [4] = assay: TUNEL staining of dead cells, obesity model mice, intravenous FBP-8; type: in vivo, C57BL/6 mice; conditions: intravenous twice a week for 5 weeks
Procedure: as §1
Furthermore, a terminal deoxynucleotidyl transferase dUTP nick end labeling (TUNEL) analysis for each tissue was performed with an in situ cell death detection kit (Millipore, USA). Thereafter, the fluorescence signals were analyzed under a TCS-SP5 confocal microscope by staining the nuclei with Hoechst 33342, and the fluorescence signals of each cell were analyzed with the Image J program.
(§3) Obesity model mice were produced by feeding normal mice a high fat diet for 8 weeks, and FBP-8 was administered by intravenous injection twice a week for a total of 5 weeks (FIG. 13). After five weeks, the obesity model mice were sacrificed to isolate white adipose tissues and liver tissues and analyze the proportion of dead cells by TUNEL staining.

3T3L1 cell line [5] = assay: Expression of inflammation-related genes in 3T3L1 cell line treated with FasL and peptide; type: cell-based, murine; conditions: differentiated 3T3L1 treated with Fas ligand and FBP-8 in combination
Procedure: (§4) The 3T3L1 cell line was cultured in a DMEM culture medium containing 10% FBS, 1% penicillin, 1% streptomycin, and 25 mM glucose. The 3T3L1 cell line was aliquoted into the above DMEM culture solution at a concentration of 2×10^5 cells/ml to induce adipocyte maturation for 3 days, and then replaced with a culture solution containing insulin to induce adipocyte maturation again for 3 days. Thereafter, the 3T3L1 cell line was further cultured in the above DMEM culture solution for 2 days to achieve complete maturation of adipocytes.
(§5) mRNA was extracted from liver tissues and white adipose tissues using RNAiso (Takara, Japan), and cDNA was synthesized with an iscript cDNA synthesis kit (Bio-Rad Laboratories, USA). Thereafter, a gene expression level was analyzed by the 7500 Fast Real-time PCR system (Applied Biosystems, USA). The expression level of each gene was normalized with the expression level of a GAPDH gene, and then calculated as a relative gene expression level with respect to the control.

3T3L1 cell line [6] = assay: Free fatty acid (FFA) release into 3T3L1 cell culture solution; type: cell-based, murine; conditions: 3T3L1 treated with FasL and FBP-8
Procedure: as §4

obesity model mice [7] = assay: Pro-inflammatory cytokines in blood, obesity model mice, intravenous FBP-8; type: in vivo, C57BL/6 mice
Procedure: as §1, §2

[8] = Delivery of fluorescently labeled peptide to organs of normal body weight mice; type: in vivo; conditions: intravenous (IV) or subcutaneous (SC) injection, 12 hours
3T3L1 cell line [9] = assay: Inflammation-related cytokines in 3T3L1 cell culture solution (ELISA); type: cell-based, murine; conditions: 3T3L1 treated with FasL and FBP-8
Procedure: as §4, §2

obesity model mice [10] = assay: Daily food intake and body weight change, obesity model mice, intravenous FBP-8; type: in vivo, C57BL/6 mice
Procedure: as §1, §3

obesity model mice [11] = assay: Gene expression in white adipose and liver tissues, obesity model mice, intravenous FBP-8; type: in vivo, C57BL/6 mice
Procedure: as §1, §5, §3

[12] = compared to negative control (CtrFBP)

With “YCDEHFCY (Fas binding peptide-8 (FBP-8))” the “blood glucose changes / glucose metabolism in GTT and ITT” value (obesity model mice [1]) was “improved glucose metabolism”, the “co-staining with Fas-specific antibody in liver and white adipose tissue sections” value (Fas) was “the stained sites coincided” and the “reduction of triglyceride (TG) concentration in blood” value (obesity model mice [2]) was “about 25%”. For the same sequence, the “reduction of triglyceride (TG) concentration in the liver tissue” value (obesity model mice [2]) was “about 50%”, the “decrease of fatty acid concentration in blood” value (obesity model mice [2]; [12]) was “about 20%” and the “decrease of insulin concentration in blood” value (obesity model mice [2]; [12]) was “about 20%”. For the same sequence, the “reduction of blood alanine aminotransferase (ALT) level” value (obesity model mice [2]; [12]) was ≥ 30%, the “damage to the liver tissue (histological analysis)” value (obesity model mice [3]) was “inhibited” and the “size of the liver tissue” value (obesity model mice [3]; [12]) was “smaller”. For the same sequence, the “weight of the liver tissue” value (obesity model mice [3]; [12]) was “lighter”, the “proportion of dead cells in liver tissue (TUNEL)” value (obesity model mice [4]) was 9±2.37% and the “proportion of dead cells in white adipose tissue (TUNEL)” value (obesity model mice [4]) was 31+2.37%. The “expressions of inflammation-related genes Fas, TNF-α, MCP-1, F4/80, IL-6 and iNOS” value (3T3L1 cell line [5]) was “remarkably reduced”, the “extracellular release of fatty acids (FFA)” value (3T3L1 cell line [6]) was “significantly inhibited” and the “concentrations of IL-6 and MCP-1 in blood” value (obesity model mice [7]) was “decrease”. The “fluorescence signal in the liver tissue of normal mice” value [8] was “a significant fluorescence signal could not be observed”, the “concentrations of IL-6 and MCP-1 in the cell culture solution” value (3T3L1 cell line [9]) was “reduces” and the daily food intake (obesity model mice [10]) was “no significant change”. The body weight gain (obesity model mice [10]; [12]) was “slower”, the “expression level of CD206 (anti-inflammatory macrophage marker) in liver tissues” value (obesity model mice [11]) was “no significant change” and the “expression levels of F480 and CD11c (pro-inflammatory macrophage markers) in white adipose tissue” value (obesity model mice [11]; [12]) was “significantly reduced”. For the same sequence, the “expression levels of F480 and CD11c in liver tissues” value (obesity model mice [11]; [12]) was “decreased”, the “expression levels of inflammation-related genes Fas, TNF-α, MCP-1 and IL-6 in liver tissues” value (obesity model mice [11]; [12]) was “significantly reduced” and the “expression of inflammation-related genes Fas, TNF-α, MCP-1 and IL-6 in white adipose tissues” value (obesity model mice [11]; [12]) was “reduced”. The “reduction of stearoyl-CoA desaturase (SCD-1) expression level in liver tissues” value (obesity model mice [11]; [12]) was “about 30+5.32%”.
